According to US20230303565A1, “PESTICIDALLY ACTIVE HETEROCYCLIC DERIVATIVES WITH SULFUR CONTAINING SUBSTITUENTS” (SYNGENTA CROP PROTECTION AG, priority 2020, published 2023):

Key:
Type in all cases: in vivo
[1] = system: Carpocapsa (Cydia) Pomonella (Codling Moth); assay: Activity against Carpocapsa (Cydia) pomonella (codling moth), larvicide, feeding/contact, diet cubes; conditions: 336 h, application rate of 12.5 ppm, L1 larvae, 14 days after infestation, 26-27° C.
Procedure: Example B9: Activity Against Carpocapsa (Cydia) Pomonella (Codling Moth)) Larvicide, Feeding/Contact
Diet cubes coated with paraffin were sprayed with diluted test solutions in an application chamber. After drying off the treated cubes (10 replicates) were infested with 1 L1 larvae. Samples were incubated at 26-27° C. and checked 14 days after infestation for mortality and growth inhibition.

[2] = system: Euschistus heros (Neotropical Brown Stink Bug); assay: Activity against Euschistus heros (neotropical brown stink bug), soybean leaves on agar; conditions: 120 h, application rate of 200 ppm, N2 nymphs, 5 days after infestation, in comparison to untreated samples, read-out: effect in at least one of the two categories (mortality or growth inhibition)
Procedure: Example B3: Activity Against Euschistus heros (Neotropical Brown Stink Bug)
Soybean leaves on agar in 24-well microtiter plates were sprayed with aqueous test solutions prepared from 10′000 ppm DMSO stock solutions. After drying the leaves were infested with N2 nymphs. The samples were assessed for mortality and growth inhibition in comparison to untreated samples 5 days after infestation.

[3] = system: Plutella xylostella (Diamond Back Moth); assay: Activity against Plutella xylostella (diamond back moth), artificial diet in 24-well plates; conditions: 192 h, application rate of 200 ppm, Plutella eggs, 8 days after infestation, in comparison to untreated samples, read-out: effect in at least one of the two categories (mortality or growth inhibition)
Procedure: Example B6: Activity Against Plutella xylostella (Diamond Back Moth)
24-well microtiter plates with artificial diet were treated with aqueous test solutions prepared from 10′000 ppm DMSO stock solutions by pipetting. After drying, Plutella eggs were pipetted through a plastic stencil onto a gel blotting paper and the plate was closed with it. The samples were assessed for mortality and growth inhibition in comparison to untreated samples 8 days after infestation.

[4] = system: Frankliniella occidentalis (Western Flower Thrips); assay: Activity against Frankliniella occidentalis (western flower thrips), feeding/contact activity, sunflower leaf discs; conditions: foliar, 168 h, application rate of 200 ppm, population of mixed ages, 7 days after infestation
Procedure: Example B4: Activity Against Frankliniella occidentalis (Western Flower Thrips) Feeding/Contact Activity
Sunflower leaf discs were placed on agar in 24-well microtiter plates and sprayed with aqueous test solutions prepared from […] stock solutions. After drying the leaf discs were infested with a Frankliniella population of mixed ages. The samples were assessed for mortality 7 days after infestation.

[5] = system: Myzus persicae (Green Peach Aphid); assay: Activity against Myzus persicae (green peach aphid), feeding/contact activity, sunflower leaf discs; conditions: foliar, 144 h, application rate of 200 ppm, aphid population of mixed ages, 6 days after infestation
Procedure: Example B5: Activity Against Myzus persicae (Green Peach Aphid) Feeding/Contact Activity
Sunflower leaf discs were placed onto agar in a 24-well microtiter plate and sprayed with aqueous test solutions prepared from 10′000 ppm DMSO stock solutions. After drying, the leaf discs were infested with an aphid population of mixed ages. The samples were assessed for mortality 6 days after infestation.

[6] = system: Diabrotica Balteata (Corn Root Worm); assay: Activity against Diabrotica balteata (corn root worm), maize sprouts on agar; conditions: 96 h, application rate of 200 ppm, L2 larvae, 4 days after infestation, in comparison to untreated samples, read-out: effect in at least one of the two categories (mortality or growth inhibition)
Procedure: Example B2: Activity Against Diabrotica Balteata (Corn Root Worm)
Maize sprouts placed onto an agar layer in 24-well microtiter plates were treated with aqueous test solutions prepared from 10′000 ppm DMSO stock solutions by spraying. After drying, the plates were infested with L2 larvae (6 to 10 per well). The samples were assessed for mortality and growth inhibition in comparison to untreated samples 4 days after infestation.

[7] = system: Spodoptera littoralis (Egyptian Cotton Leaf Worm); assay: Activity against Spodoptera littoralis (Egyptian cotton leaf worm), cotton leaf discs; conditions: foliar, 72 h, application rate of 200 ppm, L1 larvae, 3 days after infestation, in comparison to untreated samples, read-out: control (at least one of mortality, anti-feedant effect, growth inhibition)
Procedure: Example B7: Activity Against Spodoptera littoralis (Egyptian Cotton Leaf Worm)
Cotton leaf discs were placed onto agar in 24-well microtiter plates and sprayed with aqueous test solutions prepared from 10′000 ppm DMSO stock solutions. After drying the leaf discs were infested with five L1 larvae. The samples were assessed for mortality, anti-feeding effect, and growth inhibition in comparison to untreated samples 3 days after infestation. Control of Spodoptera littoralis by a test sample is given when at least one of the categories mortality, anti-feedant effect, and growth inhibition is higher than the untreated sample.

[8] = system: Chilo suppressalis (Striped Rice Stemborer); assay: Activity against Chilo suppressalis (striped rice stemborer), artificial diet in 24-well plates; conditions: 144 h, application rate of 200 ppm, L2 larvae, 6 days after infestation, in comparison to untreated samples, read-out: control (at least one of mortality, anti-feedant effect, growth inhibition)
Procedure: Example B1: Activity Against Chilo suppressalis (Striped Rice Stemborer)
24-well microtiter plates with artificial diet were treated with aqueous test solutions prepared from 10′000 ppm DMSO stock solutions by pipetting. After drying, the plates were infested with L2 larvae (6-8 per well). The samples were assessed for mortality, anti-feeding effect, and growth inhibition in comparison to untreated samples 6 days after infestation. Control of Chilo suppressalis by a test sample is given when at least one of the categories mortality, anti-feedant effect, and growth inhibition is higher than the untreated sample.

CCS(=O)(=O)c1c(N2Cc3ncc(C4(C#N)CC4)cc3C2=O)nc2ccc(C(F)(F)F)cn12 [P2, 1-[6-[3-ethylsulfonyl-6-(trifluoromethyl)imidazo[1,2-a]pyridin-2-yl]-5-oxo-7H-pyrrolo[3,4-b]pyridin-3-yl]cyclopropanecarbonitrile]
≥ 80%: mortality at 12.5 ppm [1] | percent effect (mortality or growth inhibition) at 200 ppm [2] | percent effect (mortality or growth inhibition) at 200 ppm [3] | mortality at 200 ppm [4] | mortality at 200 ppm [5] | percent effect (mortality or growth inhibition) at 200 ppm [6] | percent control (mortality, anti-feedant effect or growth inhibition) at 200 ppm [7] | percent control (mortality, anti-feedant effect or growth inhibition) at 200 ppm [8]
